Data reported in patent US9321787B2, “Carboxylic acid derivatives having an oxazolo[5,4-d]pyrimidine ring” (SANOFI, priority 2011, dated 2016).

Biological target: T1, human Edg-1 receptor (Homo sapiens, UniProt P21453)
T1 construct: FLAG (N); expressed in transfected cells; membrane preparation
Assay: GTP-γ-S assay using human Edg-1 receptors (scintillation proximity assay, CHO Flp-In membrane preparation)
Type: biochemical
Conditions: test compound at 10 μM; high control 10 μM S1P = 100% activation; membranes of CHO Flp-In cells overexpressing human Edg-1; read-out: % activation (Edg-1 receptor activation in percent of the activation by 10 μM S1P)
Description: A) GTP-γ-S Assay Using Human Edg-1 Receptors
In order to determine the Edg-1 receptor activation by the compounds of the invention, a GTP-γ-S (GTP-γ-S=guanosine 5′-[thio]triphosphate) assay for G-protein coupled receptor binding based on the scintillation proximity assay principle was used, employing a cell membrane preparation from a CHO Flp-In cell line which constitutively overexpresses the human Edg-1 receptor.
A membrane preparation was obtained by standard methods from the aforedescribed CHO Flp-In cell line constitutively overexpressing the human Edg-1 receptor. Briefly, the cryopreserved cells were taken in culture and grown until confluency in T175 cell culture flasks (Becton Dickinson, cat. no. 35 5001). Cell culture was stopped by washing with calcium-free phosphate-buffered saline (PBS; Gibco, cat. no. 14190), and cells were harvested with a rubber-policeman in 4° C. cold and calcium-free PBS supplemented with a protease inhibitor cocktail (complete protease inhibitor; Roche, cat. no. 1697498; 1 tablet per 50 ml) and subsequently centrifuged at 4° C. for 15 min at 1100×g (Heraeus Minifuge T). For cell lysis, the pellet was resuspended in a 4° C. cold hypotonic buffer consisting of 5 mM HEPES (Sigma-Aldrich, cat. no. H-0981), 1 mM EDTA (disodium salt; Merck, cat. no. 8418) supplemented with protease inhibitor cocktail (as above) in which cells were stored for another 15 min on ice. After lysis, cells were centrifuged at 4° C. for 10 min at 400×g (Heraeus Minifuge T). The pellet was disrupted in a Dounce homogenizer, diluted with the supernatant of the previous centrifugation and subsequently centrifuged at 4° C. for 10 min at 500×g (Heraeus Minifuge T) in order to separate nuclei and still intact cells from the membranes mainly present in the supernatant. The supernatant was then diluted in hypotonic buffer and centrifuged (Beckmann, Avanti J251) at approximately 18600×g for 2 h at 4° C. After centrifugation, the membrane pellet was resuspended in a storing buffer consisting of 20 mM HEPES; 150 mM NaCl (Merck, cat. no. 6400), 1 mM EDTA (as above) supplemented with protease inhibitor cocktail (as above). The membrane preparation was aliquoted and stored at −80° C. Protein concentration of the membrane preparation was determined in a sample by means of a commercial protein assay (Bio-Rad, DC Protein Assay, cat. nos. 500-0113, 500-0114, 500-0115).
The Edg-1 membrane preparation obtained in (b) was employed in a commercially available scintillation proximity assay (SPA) kit for G-protein coupled receptor binding from Amersham Biosciences/GE Healthcare (code RPNQ0210), in which ligand-induced binding of ^35S-radiolabeled GTP-γ-S to the receptor-containing membrane, which is bound to scintillation beads, stimulates the emission of light and allows the quantification of the in vitro activity of the Edg-1 agonistic compound. The assay was performed on a 96-well plate substantially according to the manufacturer's instructions. Before starting the experiments, scintillation beads were suspended in a reconstitution buffer consisting of Tris-HCl (pH 7.4) supplemented with 0.1% (w/v) sodium azide and subsequently diluted on ice with assay buffer (consisting of 20 mM HEPES, 100 mM NaCl, 1 mM EDTA (as above), 1 mM dithiothreitol (DTT), adjusted to pH 7.4) to a final bead concentration of 30 mg/ml.
Wells were charged with 10 μl of the specified assay buffer, 10 μl of a 100 μM guanosine diphosphate (GDP) solution, and 10 μl of a solution of the test compound in assay buffer/dimethyl sulfoxide resulting in a final concentration of the test compound of 10 μM. For the high controls, 10 μl of a solution of sphingosine-1-phosphate (S1P; Sigma, cat. no. S-9666), resulting in a final S1P concentration of 10 μM, and for the low controls 10 μl of assay buffer, was added into the respective wells instead of the solution of the test compound. All wells contained equivalent amounts of dimethyl sulfoxide. […]

T1 sequence (P21453 whole entry): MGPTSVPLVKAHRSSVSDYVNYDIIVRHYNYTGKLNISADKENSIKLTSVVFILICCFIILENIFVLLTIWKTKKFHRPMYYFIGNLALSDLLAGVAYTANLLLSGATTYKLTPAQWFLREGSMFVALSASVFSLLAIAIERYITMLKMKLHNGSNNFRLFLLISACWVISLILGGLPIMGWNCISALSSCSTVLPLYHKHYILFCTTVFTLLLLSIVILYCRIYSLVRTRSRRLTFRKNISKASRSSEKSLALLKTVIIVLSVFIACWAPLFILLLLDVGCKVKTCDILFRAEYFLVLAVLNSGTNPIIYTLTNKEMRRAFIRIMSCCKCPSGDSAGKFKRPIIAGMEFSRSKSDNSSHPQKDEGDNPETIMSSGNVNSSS

activation at 10 µM [%]	SMILES
94	CCCc1nc(Oc2cc(F)ccc2F)nc2oc(-c3cc(C)c(OCC(=O)O)c(C)c3)nc12 [Example 1, {4-[5-(2,5-Difluorophenoxy)-7-propyloxazolo[5,4-d]pyrimidin-2-yl]-2,6-dimethylphenoxy}acetic acid]
97	CCCc1nc(OCCC(F)(F)F)nc2oc(-c3cc(C)c(OCC(=O)O)c(C)c3)nc12 [Example 2, {2,6-Dimethyl-4-[7-propyl-5-(3,3,3-trifluoropropoxy)oxazolo[5,4-d]pyrimidin-2-yl]phenoxy}acetic acid]
98	Cc1cc(-c2nc3c(CC(C)C)nc(Cc4ccccc4)nc3o2)cc(C)c1OCC(=O)O [Example 8, [4-(5-Benzyl-7-isobutyloxazolo[5,4-d]pyrimidin-2-yl)-2,6-dimethylphenoxy]acetic acid]
86	Cc1cc(-c2nc3c(CC(C)C)nc(Oc4cccc(Cl)c4)nc3o2)cc(C)c1OCC(=O)O [Example 5, {4-[5-(3-Chlorophenoxy)-7-isobutyloxazolo[5,4-d]pyrimidin-2-yl]-2,6-dimethylphenoxy}acetic acid]
90	Cc1cc(-c2nc3c(C(C)C)nc(Cc4ccc(Cl)cc4)nc3o2)cc(C)c1OCC(=O)O [Example 9, {4-[5-(4-Chlorobenzyl)-7-isopropyloxazolo[5,4-d]pyrimidin-2-yl]-2,6-dimethylphenoxy}acetic acid]
118	CCCc1nc(Oc2cccc(Cl)c2)nc2oc(-c3cc(C)c(OCC(=O)O)c(C)c3)nc12 [Example 6, {4-[5-(3-Chlorophenoxy)-7-propyloxazolo[5,4-d]pyrimidin-2-yl]-2,6-dimethylphenoxy}acetic acid]
92	Cc1cc(-c2nc3c(CC(C)C)nc(Oc4ccccc4F)nc3o2)cc(C)c1OCC(=O)O [Example 3, {4-[5-(2-Fluorophenoxy)-7-isobutyloxazolo[5,4-d]pyrimidin-2-yl]-2,6-dimethylphenoxy}acetic acid]
38	Cc1cc(-c2nc3c(CC(C)C)nc(Cc4ccc(Cl)cc4)nc3o2)cc(C)c1OCC(=O)O [Example 7, {4-[5-(4-Chlorobenzyl)-7-isobutyloxazolo[5,4-d]pyrimidin-2-yl]-2,6-dimethylphenoxy}acetic acid]
106	Cc1cc(-c2nc3c(CC(C)C)nc(OCCC(F)(F)F)nc3o2)cc(C)c1OCC(=O)O [Example 4, {4-[7-Isobutyl-5-(3,3,3-trifluoropropoxy)oxazolo[5,4-d]pyrimidin-2-yl]-2,6-dimethylphenoxy}acetic acid]
